Results on 23 molecules are retold here after patent US8785489B2, “Heteroaryl substituted indole compounds useful as MMP-13 inhibitors” (Boehringer Ingelheim International GmbH, priority 2008, dated 2014).

The target of the experiment is MMP13 (Homo sapiens (Human), UniProt P45452). Briefly: EnzoLyte 520 Generic MMP Assay Kit, 5-FAM/QXL 520 FRET peptide substrate. The format is biochemical. The source says:
The EnzoLyte™ 520 Generic MMP Assay Kit (AnaSpec Inc.) can detect the activity of several MMPs including MMP-1, 2, 3, 7, 8, 9, 13, and 14. This kit uses a 5-FAM/QXL™ 520 fluorescence resonance energy transfer (FRET) peptide as an MMP substrate. In the intact FRET peptide, the fluorescence of 5-FAM is quenched by QXL™ 520. Upon cleavage into two separate fragments by MMPs, the fluorescence of 5-FAM is recovered, and can be monitored at excitation/emission wavelengths=490 nm/520 nm. The assays are performed in a convenient 96-well or 384-well microplate format.
Broadly, the IC50 is the concentration that inhibits the measured activity by half. Read a high IC50 as lower potency. Molecule `Cc1noc(-c2cc3cc(-c4cc(C(=O)NCc5ccn(C)n5)nn4C)ccc3[nH]2)n1` [1-methyl-5-[2-(3-methyl-1,2,4-oxadiazol-5-yl)-1H-indol-5-yl]-N-[(1-methyl-1H-pyrazol-3-yl)methyl]-1H-pyrazole-3-carboxamide] showed an IC50 of 185 nM.

For the molecule `Cc1noc(-c2cc3cc(-c4cc(C(=O)NCc5cnn(C)c5)nn4C)ccc3[nH]2)n1` [1-methyl-5-[2-(3-methyl-1,2,4-oxadiazol-5-yl)-1H-indol-5-yl]-N-[(1-methyl-1H-pyrazol-4-yl)methyl]-1H-pyrazole-3-carboxamide], the IC50 worked out at 10 nM.

For the molecule `Cc1noc(-c2cc3cc(-c4cc(C(=O)NCc5ccnn5C)nn4C)ccc3[nH]2)n1` [1-methyl-5-[2-(3-methyl-1,2,4-oxadiazol-5-yl)-1H-indol-5-yl]-N-[(1-methyl-1H-pyrazol-5-yl)methyl]-1H-pyrazole-3-carboxamide], the IC50 came out at 125 nM. Compared with the last molecule, the IC50 is about 12-fold higher.

As for `Cc1noc(-c2cc3cc(-c4cc(C(=O)NCc5cc(C)on5)nn4C)ccc3[nH]2)n1` [1-methyl-N-[(5-methylisoxazol-3-yl)methyl]-5-[2-(3-methyl-1,2,4-oxadiazol-5-yl)-1H-indol-5-yl]-1H-pyrazole-3-carboxamide], the IC50 is 24 nM.

In turn, `O=C(NCc1ccncc1)c1cc(-c2ccc3[nH]c(-c4ccncc4)cc3c2)ccn1` [4-(2-Pyridin-4-yl-1H-indol-5-yl)-pyridine-2-carboxylic acid (pyridin-4-ylmethyl)-amide] returned an IC50 of 62 nM.

The molecule `CCOC(=O)c1cc2cc(-c3nc(C(=O)OCC)[nH]c3C)ccc2[nH]1` [5-(2-Ethoxycarbonyl-5-methyl-1H-imidazol-4-yl)-1H-indole-2-carboxylic acid ethyl ester] returned an IC50 of 39 nM.

`Cc1noc(-c2cc3cc(-c4nc(C(N)=O)[nH]c4C)ccc3[nH]2)n1` [5-methyl-4-[2-(3-methyl-1,2,4-oxadiazol-5-yl)-1H-indol-5-yl]-1H-imidazole-2-carboxamide]: the IC50 stood at 10 nM.

As to `Cc1noc(-c2cc3cc(-c4nc(C(=O)NCc5nccs5)[nH]c4C)ccc3[nH]2)n1` [5-methyl-4-[2-(3-methyl-1,2,4-oxadiazol-5-yl)-1H-indol-5-yl]-N-(1,3-thiazol-2-ylmethyl)-1H-imidazole-2-carboxamide], the midpoint of inhibition, the IC50, lay at 2 nM.

`Cc1noc(-c2cc3cc(-c4nc(C(=O)NCC5CCOCC5)[nH]c4C)ccc3[nH]2)n1` [5-methyl-4-[2-(3-methyl-1,2,4-oxadiazol-5-yl)-1H-indol-5-yl]-N-(tetrahydro-2H-pyran-4-ylmethyl)-1H-imidazole-2-carboxamide] displayed an IC50 of 1.1 nM.

As to `Cc1noc(-c2cc3cc(-c4nc(C(=O)NCC5CCCO5)[nH]c4C)ccc3[nH]2)n1` (centres unmarked) [5-methyl-4-[2-(3-methyl-1,2,4-oxadiazol-5-yl)-1H-indol-5-yl]-N-(tetrahydrofuran-2-ylmethyl)-1H-imidazole-2-carboxamide], the IC50 came out at 3 nM.

Consider `Cc1noc(-c2cc3cc(-c4nc(C(=O)NCc5cnn(C)c5)[nH]c4C)ccc3[nH]2)n1` [5-methyl-4-[2-(3-methyl-1,2,4-oxadiazol-5-yl)-1H-indol-5-yl]-N-[(1-methyl-1H-pyrazol-4-yl)methyl]-1H-imidazole-2-carboxamide], for which 0.4 nM corresponded to half-maximal inhibition (IC50).

As to `Cc1noc(-c2cc3cc(-c4nc(C(=O)NC[C@H]5CCCO5)[nH]c4C)ccc3[nH]2)n1` [5-methyl-4-[2-(3-methyl-1,2,4-oxadiazol-5-yl)-1H-indol-5-yl]-N-[(2R)-tetrahydrofuran-2-ylmethyl]-1H-imidazole-2-carboxamide], the half-maximal inhibitory concentration (IC50) came to 5 nM.

Regarding `Cc1noc(-c2cc3cc(-c4nc(C(=O)NC[C@@H]5CCCO5)[nH]c4C)ccc3[nH]2)n1` [5-methyl-4-[2-(3-methyl-1,2,4-oxadiazol-5-yl)-1H-indol-5-yl]-N-[(2S)-tetrahydrofuran-2-ylmethyl]-1H-imidazole-2-carboxamide], the IC50 is 4 nM.

As for `Cc1noc(-c2cc3cc(-c4nc(C(=O)NCc5cc(C)on5)[nH]c4C)ccc3[nH]2)n1` [5-methyl-N-[(5-methylisoxazol-3-yl)methyl]-4-[2-(3-methyl-1,2,4-oxadiazol-5-yl)-1H-indol-5-yl]-1H-imidazole-2-carboxamide], half-maximal inhibition (IC50) was put at 0.9 nM.

`CCOC(=O)c1cc2cc(-c3ccnc(C(=O)NCc4ccncc4)c3)ccc2[nH]1` [5-{2-[(Pyridin-4-ylmethyl)-carbamoyl]-pyridin-4-yl}-1H-indole-2-carboxylic acid ethyl ester]: half-maximal inhibition (IC50) required 94 nM.

`Cc1noc(-c2cc3cc(-c4nc(C(=O)NCC5CC5)[nH]c4C)ccc3[nH]2)n1` [N-(cyclopropylmethyl)-5-methyl-4-[2-(3-methyl-1,2,4-oxadiazol-5-yl)-1H-indol-5-yl]-1H-imidazole-2-carboxamide]: the IC50 is 8 nM.

`Cc1noc(-c2cc3cc(-c4cc(C(=O)NCc5ccno5)nn4C)ccc3[nH]2)n1` [N-(isoxazol-5-ylmethyl)-1-methyl-5-[2-(3-methyl-1,2,4-oxadiazol-5-yl)-1H-indol-5-yl]-1H-pyrazole-3-carboxamide] returned an IC50 of 19 nM.

Molecule `Cc1noc(-c2cc3cc(-c4nc(C(=O)NCc5ccno5)[nH]c4C)ccc3[nH]2)n1` [N-(isoxazol-5-ylmethyl)-5-methyl-4-[2-(3-methyl-1,2,4-oxadiazol-5-yl)-1H-indol-5-yl]-1H-imidazole-2-carboxamide] registered an IC50 of 0.7 nM.

Turning to `Cc1noc(-c2cc3cc(-c4cc(C(=O)NCc5ccnc(Cl)c5)nn4C)ccc3[nH]2)n1` [N-[(2-chloropyridin-4-yl)methyl]-1-methyl-5-[2-(3-methyl-1,2,4-oxadiazol-5-yl)-1H-indol-5-yl]-1H-pyrazole-3-carboxamide], inhibition was half-maximal at 4 nM (IC50).

With `Cc1noc(-c2cc3cc(-c4nc(C(=O)NCc5ccnc(C#N)c5)[nH]c4C)ccc3[nH]2)n1` [N-[(2-cyanopyridin-4-yl)methyl]-5-methyl-4-[2-(3-methyl-1,2,4-oxadiazol-5-yl)-1H-indol-5-yl]-1H-imidazole-2-carboxamide], the IC50 came to 0.95 nM.

In turn, `Cc1noc(-c2cc3cc(-c4cc(C(=O)NCc5ccccc5)nn4C)ccc3[nH]2)n1` [N-benzyl-1-methyl-5-[2-(3-methyl-1,2,4-oxadiazol-5-yl)-1H-indol-5-yl]-1H-pyrazole-3-carboxamide] displayed an IC50 of 26 nM.

`Cc1noc(-c2cc3cc(-c4nc(C(=O)NCc5ccccc5)[nH]c4C)ccc3[nH]2)n1` [N-benzyl-5-methyl-4-[2-(3-methyl-1,2,4-oxadiazol-5-yl)-1H-indol-5-yl]-1H-imidazole-2-carboxamide]: it took 2 nM to reach half-maximal inhibition (IC50). This IC50 lies about 13-fold lower than the previous one.

The molecule `Cc1noc(-c2cc3cc(-c4nc(C(=O)NC5CC5)[nH]c4C)ccc3[nH]2)n1` [N-cyclopropyl-5-methyl-4-[2-(3-methyl-1,2,4-oxadiazol-5-yl)-1H-indol-5-yl]-1H-imidazole-2-carboxamide] displayed an IC50 of 26 nM.
